Patent publication US20020137929A1, “1 - (3-heterocyclylphenyl) isothiourea, -isourea, -guanidine and -amidine herbicidal agents” (Intellectual Property Department, BASF Aktiengesellschaft, priority 1998, published 2002)

How the values were obtained:
[1] = tested on: ABUTH (Velvetleaf); test: Postemergence herbicidal evaluation; assay type: in vivo, Abutilon theophrasti; details: postemergence
In short: (§1)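 Visual 0-9 injury score (stand, vigor, malformation, size, chlorosis, appearance vs untreated) taken four to five weeks post-spray, averaged across repeat tests. Test plants about two weeks old; foliar spray of acetone/water (1:1) with 0.5% surfactant delivering ~0.0156-0.500 kg active/ha.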

[2] = tested on: IPOHE (Morningglory, Ivyleaf); test: Postemergence herbicidal evaluation; assay type: in vivo, Ipomoea hederacea; details: postemergence
In short: as §1

[3] = tested on: SETVI (Foxtail, Green); test: Postemergence herbicidal evaluation; assay type: in vivo, Setaria viridis; details: postemergence
In short: as §1

[4] = tested on: GLXMAW (Soybean, Williams); test: Postemergence herbicidal evaluation; assay type: in vivo, Glycine max, (L.) Merr. cv Williams; details: postemergence
In short: as §1

[5] = tested on: ZEAMX (Corn, Field); test: Postemergence herbicidal evaluation; assay type: in vivo, Zea mays; details: postemergence
In short: as §1

[6] = tested on: ABUTH (Velvetleaf); test: Preemergence herbicidal evaluation; assay type: in vivo, Abutilon theophrasti; details: rated 4-5 weeks after treatment
In short: (§2)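 Preemergence soil application of compound, sprayed in aqueous acetone at rates equivalent to about 0.0156 to 0.500 kg per hectare onto freshly sown cups. Plant response was judged by eye on a 0-9 scale four to five weeks later.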

[7] = tested on: AMBEL (Ragweed, Common); test: Preemergence herbicidal evaluation; assay type: in vivo, Ambrosia artemisifolia; details: rated 4-5 weeks after treatment
In short: as §2

[8] = tested on: CASOB (Sicklepod); test: Preemergence herbicidal evaluation; assay type: in vivo, Cassia obtusifolia; details: rated 4-5 weeks after treatment
In short: as §2

[9] = tested on: IPOHE (Morningglory, Ivyleaf); test: Preemergence herbicidal evaluation; assay type: in vivo, Ipomoea hederacea; details: rated 4-5 weeks after treatment
In short: as §2

[10] = tested on: ECHCG (Barnyardgrass); test: Preemergence herbicidal evaluation; assay type: in vivo, Echinochloa crus-galli; details: rated 4-5 weeks after treatment
In short: as §2

[11] = tested on: ECHORC (Watergrass (Calif.)); test: Preemergence weed control under flooded paddy conditions; assay type: in vivo, Echinochloa oryzoides; details: rated 3-4 weeks after treatment
In short: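 Silt loam, seeds in top 0.5 cm; flood held 1.5-3 cm; test cpd as acetone/water 50/50 into flood water, ~0.0313-0.500 kg/ha a.i.; greenhouse 3-4 wk; visual 0-9 score vs control.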

[12] = tested on: CYPSE (Flatsedge); test: as above; assay type: in vivo, Cyperus serotinus; details: rated 3-4 weeks after treatment
In short: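 First, seeds or propagules go into the top 0.5 cm of silt loam; next, water is held 1.5 to 3 cm over the soil; then compound (50/50 acetone/water) is pipetted into it at about 0.0313 to 0.500 kg/ha; finally plants are rated visually 0-9 after three to four weeks.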

[13] = tested on: ECHORC (Watergrass (Calif.)); test: Postemergence weed control under flooded paddy conditions; assay type: in vivo, Echinochloa oryzoides; details: postemergence weeds, rated 3 to 4 weeks after treatment
In short: (§3)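 Weeds 3 to 5 cm tall and rice seedlings at the 1.5 to 2.5 leaf stage were flooded, with water held 1.5 to 3 cm above the soil. Compounds in 50/50 v/v aqueous/acetone went into the flood water at about 0.0313 to 0.500 kg/ha. Visual 0-9 ratings versus control were made 3 to 4 weeks later.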

[14] = tested on: CYPIR (Rice Flatsedge); test: as above; assay type: in vivo, Cyperus iria; details: postemergence weeds, rated 3 to 4 weeks after treatment
In short: as §3

SMILES: CC(C)S(=O)(=O)NC(=O)CC1SC(=Nc2cc(-n3c(=O)cc(C(F)(F)F)n(C)c3=O)c(F)cc2Cl)N(C)C1=O (stereo not drawn) [Compound 119, 2-{{2-Chloro-5-[3,6-dihydro-3-methyl-2,6-dioxo-4-(trifluoromethyl)-1(2H)-pyrimidinyl]-4-fluorophenyl}imino}-N-(isopropylsulfonyl)-3-methyl-4-oxo-5-thiazolidineacetamide]
- Herbicidal rating ABUTH ([1]; rate 0.0156 kg/ha): 9.0
- Herbicidal rating ABUTH ([1]; rate 0.0313 kg/ha): 9.0
- Herbicidal rating ABUTH ([1]; rate 0.0625 kg/ha): 9.0
- Herbicidal rating IPOHE ([2]; rate 0.0156 kg/ha): 9.0
- Herbicidal rating IPOHE ([2]; rate 0.0313 kg/ha): 9.0
- Herbicidal rating IPOHE ([2]; rate 0.0625 kg/ha): 9.0
- Herbicidal rating SETVI ([3]; rate 0.0156 kg/ha): 3.0
- Herbicidal rating SETVI ([3]; rate 0.0313 kg/ha): 9.0
- Herbicidal rating SETVI ([3]; rate 0.0625 kg/ha): 9.0
- Herbicidal rating GLXMAW ([4]; rate 0.0156 kg/ha): 7.0
- Herbicidal rating GLXMAW ([4]; rate 0.0313 kg/ha): 8.5
- Herbicidal rating GLXMAW ([4]; rate 0.0625 kg/ha): 8.5
- Herbicidal rating ZEAMX ([5]; rate 0.0156 kg/ha): 4.5
- Herbicidal rating ZEAMX ([5]; rate 0.0313 kg/ha): 5.5
- Herbicidal rating ZEAMX ([5]; rate 0.0625 kg/ha): 6.0
- Preemergence herbicidal rating ABUTH ([6]; rate 0.0156 kg/ha): 0.0
- Preemergence herbicidal rating ABUTH ([6]; rate 0.0313 kg/ha): 3.0
- Preemergence herbicidal rating ABUTH ([6]; rate 0.0625 kg/ha): 4.0
- Preemergence herbicidal rating ABUTH ([6]; rate 0.1250 kg/ha): 9.0
- Preemergence herbicidal rating ABUTH ([6]; rate 0.2500 kg/ha): 9.0
- Preemergence herbicidal rating AMBEL ([7]; rate 0.0156 kg/ha): 0.0
- Preemergence herbicidal rating AMBEL ([7]; rate 0.0313 kg/ha): 0.0
- Preemergence herbicidal rating AMBEL ([7]; rate 0.0625 kg/ha): 0.0
- Preemergence herbicidal rating AMBEL ([7]; rate 0.1250 kg/ha): 4.0
- Preemergence herbicidal rating AMBEL ([7]; rate 0.2500 kg/ha): 4.0
- Preemergence herbicidal rating CASOB ([8]; rate 0.0156 kg/ha): 0.0
- Preemergence herbicidal rating CASOB ([8]; rate 0.0313 kg/ha): 0.0
- Preemergence herbicidal rating CASOB ([8]; rate 0.0625 kg/ha): 0.0
- Preemergence herbicidal rating CASOB ([8]; rate 0.2500 kg/ha): 3.0
- Preemergence herbicidal rating IPOHE ([9]; rate 0.0156 kg/ha): 0.0
- Preemergence herbicidal rating IPOHE ([9]; rate 0.0313 kg/ha): 0.0
- Preemergence herbicidal rating IPOHE ([9]; rate 0.0625 kg/ha): 0.0
- Preemergence herbicidal rating IPOHE ([9]; rate 0.1250 kg/ha): 9.0
- Preemergence herbicidal rating IPOHE ([9]; rate 0.2500 kg/ha): 9.0
- Preemergence herbicidal rating ECHCG ([10]; rate 0.0156 kg/ha): 0.0
- Preemergence herbicidal rating ECHCG ([10]; rate 0.0313 kg/ha): 0.0
- Preemergence herbicidal rating ECHCG ([10]; rate 0.0625 kg/ha): 0.0
- Preemergence herbicidal rating ECHCG ([10]; rate 0.1250 kg/ha): 2.0
- Preemergence herbicidal rating ECHCG ([10]; rate 0.2500 kg/ha): 2.0
- herbicidal effect rating, ECHORC ([11]; 0.0313 kg/ha): 8.0
- herbicidal effect rating, ECHORC ([11]; 0.0625 kg/ha): 9.0
- herbicidal effect rating, ECHORC ([11]; 0.1250 kg/ha): 9.0
- herbicidal effect rating, ECHORC ([11]; 0.2500 kg/ha): 9.0
- herbicidal effect rating, CYPSE ([12]; 0.0313 kg/ha): 0.0
- herbicidal effect rating, CYPSE ([12]; 0.0625 kg/ha): 0.0
- herbicidal effect rating, CYPSE ([12]; 0.1250 kg/ha): 0.0
- herbicidal effect rating, CYPSE ([12]; 0.2500 kg/ha): 1.0
- Herbicidal rating ECHORC ([13]; Rate 0.0313 kg/ha): 0.0
- Herbicidal rating ECHORC ([13]; Rate 0.0625 kg/ha): 2.0
- Herbicidal rating ECHORC ([13]; Rate 0.1250 kg/ha): 4.0
- Herbicidal rating ECHORC ([13]; Rate 0.2500 kg/ha): 4.0
- Herbicidal rating CYPIR ([14]; Rate 0.0313 kg/ha): 2.0
- Herbicidal rating CYPIR ([14]; Rate 0.1250 kg/ha): 6.0
- Herbicidal rating CYPIR ([14]; Rate 0.2500 kg/ha): 9.0
